# Reference: publication PMC11876601 (Molecular Systems Biology, 2025)
# Where two headings read alike, the source gives them in different places.
# How the values were obtained:
# [1] = tested on: HPDE (immortalized pancreatic duct cell line); assay: Drug combination viability screen (ATPlite, 72 h); format: cell-based, human; settings: single agent, HPDE;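 further: area under vehicle-normalized viability curve scaled 0 to 100 percent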
# Method: Cell viability was assessed by measuring ATP levels to indicate metabolic activity.
# Afterward, small amounts were transferred to 384-well intermediate plates (Greiner Bio-One GmbH, Germany). […] For drug combination screening, 1000 to 5000 cells were seeded into 384-well plates (CulturPlate™, Perkin Elmer, MA, USA) using a Multidrop™ Combi Reagent Dispenser (Thermo Scientific, MA, USA) in 50 µl medium per well 24 h prior to drug treatment (seeding densities see Appendix Table S1). […] The final DMSO concentration in each well was 0.2%. […] Eight wells per plate without library drug served as negative controls, and sixteen wells per plate containing 5 µM Staurosporine served as positive controls. Control plates not containing any drug were used to correct for incubation effects, and data quality was assessed by calculation of Z-prime of positive and negative controls according to1 Z-prime=1−3SDpos+3SDneg/[…] where SD is the standard deviation. […] Dose–response curves from the experimental and hypothetical data were compared, and shifts in AUC were used to describe combination effects (AUC∆ = AUChypothetical − AUCexperimental). […] Only combinations with R^2 > 0.8 in both conditions were considered in the synergy analysis.
# AsPC-1 = assay: cells; design: ATPlite luminescence viability of PDAC cell lines, 11-dose single-agent curves, 4-parameter fit; settings: Homo sapiens, ASPC1, 72 h, read-out: EC50 [nM]
# How it was run: (§1)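 cells (1000 to 5000 per well) seeded 24 h before drug addition in a combination screen at 0.2% final DMSO. Controls were drug-free wells (negative) and 5 µM staurosporine (positive).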
# BxPC-3 = assay: cells; design: ATPlite luminescence viability of PDAC cell lines, 11-dose single-agent curves, 4-parameter fit; settings: Homo sapiens, BXPC-3, 72 h, read-out: EC50 [nM]
# How it was run: as §1
# HPDE = assay: cells; design: ATPlite luminescence viability of PDAC cell lines, 11-dose single-agent curves, 4-parameter fit; settings: HPDE, 72 h, read-out: EC50 [nM]
# How it was run: as §1
# PANC-1 [2] = assay: cells; design: ATPlite luminescence viability of PDAC cell lines, 11-dose single-agent curves, 4-parameter fit; settings: Homo sapiens, PANC-1, 72 h, read-out: EC50 [nM]
# How it was run: as §1
# Dan-G = assay: cells; design: ATPlite luminescence viability of PDAC cell lines, 11-dose single-agent curves, 4-parameter fit; settings: 72 h, read-out: EC50 [nM]
# How it was run: as §1
# HuP-T4 = assay: cells; design: ATPlite luminescence viability of PDAC cell lines, 11-dose single-agent curves, 4-parameter fit; settings: Homo sapiens, HuP-T4, 72 h, read-out: EC50 [nM]
# How it was run: as §1
# Colo-357 = assay: cells; design: ATPlite luminescence viability of PDAC cell lines, 11-dose single-agent curves, 4-parameter fit; settings: Homo sapiens, COLO357, 72 h, read-out: EC50 [nM]
# How it was run: as §1
# MiaPaCa-2 = assay: cells; design: ATPlite luminescence viability of PDAC cell lines, 11-dose single-agent curves, 4-parameter fit; settings: Homo sapiens, MIA PaCa-2, 72 h, read-out: EC50 [nM]
# How it was run: as §1
# PaTu-8988-T = assay: cells; design: ATPlite luminescence viability of PDAC cell lines, 11-dose single-agent curves, 4-parameter fit; settings: Homo sapiens, PaTu 8988t, 72 h, read-out: EC50 [nM]
# How it was run: as §1
# Capan-1 = assay: cells; design: ATPlite luminescence viability of PDAC cell lines, 11-dose single-agent curves, 4-parameter fit; settings: Homo sapiens, CAPAN-1, 72 h, read-out: EC50 [nM]
# How it was run: as §1
# FAMPAC = assay: cells; design: ATPlite luminescence viability of PDAC cell lines, 11-dose single-agent curves, 4-parameter fit; settings: 72 h, read-out: EC50 [nM]
# How it was run: as §1
# Suit2-07 = assay: cells; design: ATPlite luminescence viability of PDAC cell lines, 11-dose single-agent curves, 4-parameter fit; settings: 72 h, read-out: EC50 [nM]
# How it was run: as §1
# PSN-1 = assay: cells; design: ATPlite luminescence viability of PDAC cell lines, 11-dose single-agent curves, 4-parameter fit; settings: Homo sapiens, PSN1, 72 h, read-out: EC50 [nM]
# How it was run: as §1
# PANC-1 [3] = assay: cells; design: Viability of PDAC cell lines, ATPlite luminescence, 11-dose single-agent curve fit; settings: Homo sapiens, PANC-1, 72 h, read-out: EC50 [nM]
# How it was run: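 cells (1000 to 5000 per well) seeded 24 h before drug addition in a screen at 0.2% final DMSO. Controls were drug-free wells (negative) and 5 µM staurosporine (positive).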
SMILES,EC50 (AsPC-1) [nM],EC50 (BxPC-3) [nM],EC50 (PANC-1 [2]) [nM],EC50 (Colo-357) [nM],EC50 (MiaPaCa-2) [nM],AUC [1] [%],EC50 (HPDE) [nM],EC50 (Dan-G) [nM],EC50 (HuP-T4) [nM],EC50 (PaTu-8988-T) [nM],EC50 (Capan-1) [nM],EC50 (FAMPAC) [nM],EC50 (Suit2-07) [nM],EC50 (PSN-1) [nM],EC50 (PANC-1 [3]) [nM]
CN(C)C/C=C/C(=O)Nc1cc2c(Nc3ccc(F)c(Cl)c3)ncnc2cc1O[C@H]1CCOC1 [Afatinib],> 10000,6420,6660,1.6,1700,< 60,22.8,1.59,> 10000,2740,4990,> 10000,9950,> 10000,–
Cc1cc(Nc2ncc(Cl)c(Nc3ccccc3S(=O)(=O)C(C)C)n2)c(OC(C)C)cc1C1CCNCC1 [Ceritinib],784,2870,> 10000,2930,563,–,1550,2470,> 10000,1450,5480,2770,4690,3390,–
C[C@@H]1CN(C(=O)c2ccc(NC(=O)c3cc(O[C@H](C)c4c(Cl)ccc(F)c4Cl)c(N)nn3)cc2)C[C@H](C)N1 [Ensartinib],5190,7520,> 10000,2870,791,–,4130,2960,2630,> 10000,1990,3600,2000,4440,–
CCOc1cc2ncc(C#N)c(Nc3ccc(OCc4ccccn4)c(Cl)c3)c2cc1NC(=O)/C=C/CN(C)C [Neratinib],816,1210,–,1280,863,< 60,60.8,7080,> 10000,835,6740,1320,1400,> 10000,8210
COc1cc(Nc2c(C#N)cnc3cc(OCCCN4CCN(C)CC4)c(OC)cc23)c(Cl)cc1Cl [Bosutinib],5990,2170,> 10000,5090,> 10000,–,2140,2910,> 10000,> 10000,6130,3030,2330,4490,–

# Continued, in another order:
EC50 (AsPC-1) [nM],EC50 (BxPC-3) [nM],EC50 (PANC-1 [2]) [nM],EC50 (Colo-357) [nM],EC50 (MiaPaCa-2) [nM],SMILES,AUC [1] [%],EC50 (HPDE) [nM],EC50 (Dan-G) [nM],EC50 (HuP-T4) [nM],EC50 (PaTu-8988-T) [nM],EC50 (Capan-1) [nM],EC50 (FAMPAC) [nM],EC50 (Suit2-07) [nM],EC50 (PSN-1) [nM],EC50 (PANC-1 [3]) [nM]
> 10000,> 10000,3920,909,2210,COc1cc2ncnc(Nc3ccc(F)c(Cl)c3)c2cc1NC(=O)/C=C/CN1CCCCC1 [Dacomitinib],< 60,46.5,2440,> 10000,2200,10300,3270,1730,3850,–
644,493,1840,6740,176,CC(=O)c1cc2c(o1)C(=O)c1ccccc1C2=O [Napabucasin],–,390,5300,1650,220,6090,322,> 10000,588,–
8730,4820,7120,7270,2370,C=CC(=O)Nc1cccc(Nc2nc(Nc3ccc(N4CCN(C(C)=O)CC4)cc3OC)ncc2C(F)(F)F)c1 [Rociletinib],–,3460,6290,> 10000,4940,6270,3580,2750,2080,–
6090,4970,10000,5250,3630,Cc1ccc(C(=O)OCc2ccc([C@@H](CN)C(=O)Nc3ccc4cnccc4c3)cc2)c(C)c1 [Netarsudil],–,> 10000,1590,5200,4320,> 10000,5930,> 10000,> 10000,–
> 10000,> 10000,> 10000,347,> 10000,C=CC(=O)Nc1cc(Nc2nccc(-c3cn(C)c4ccccc34)n2)c(OC)cc1N(C)CCN(C)C [Osimertinib],–,542,2560,5300,> 10000,5860,> 10000,> 10000,5530,–
5960,3500,5790,4900,2720,CN1CCN(c2ccc(C(=O)Nc3n[nH]c4ccc(Cc5cc(F)cc(F)c5)cc34)c(NC3CCOCC3)c2)CC1 [Entrectinib],–,3900,> 10000,> 10000,> 10000,6260,5900,> 10000,> 10000,–
229,114,–,190,190,O=C(/C=C\n1cnc(-c2cc(C(F)(F)F)cc(C(F)(F)F)c2)n1)NNc1cnccn1 [Selinexor],< 60,37.7,113,1200,116,226,97,61,64.2,182
622,659,2200,1070,400,Cc1cnc(Nc2ccc(OCCN3CCCC3)cc2)nc1Nc1cccc(S(=O)(=O)NC(C)(C)C)c1 [Fedratinib],–,1280,1630,8310,274,2030,1010,320,827,–
